From ChEMBL document CHEMBL2074190, “Grapefruit juice activates P-glycoprotein-mediated drug transport” (Pharm Res, 1999)

Molecular target: ATP-dependent translocase ABCB1 (Homo sapiens, UniProt P08183)
Test: TP_TRANSPORTER: transepithelial transport (basal to apical) in MDR1-expressing MDCK cells
Assay type: functional, cell-based
Conditions: dog

Sequence of ATP-dependent translocase ABCB1 (P08183 whole entry): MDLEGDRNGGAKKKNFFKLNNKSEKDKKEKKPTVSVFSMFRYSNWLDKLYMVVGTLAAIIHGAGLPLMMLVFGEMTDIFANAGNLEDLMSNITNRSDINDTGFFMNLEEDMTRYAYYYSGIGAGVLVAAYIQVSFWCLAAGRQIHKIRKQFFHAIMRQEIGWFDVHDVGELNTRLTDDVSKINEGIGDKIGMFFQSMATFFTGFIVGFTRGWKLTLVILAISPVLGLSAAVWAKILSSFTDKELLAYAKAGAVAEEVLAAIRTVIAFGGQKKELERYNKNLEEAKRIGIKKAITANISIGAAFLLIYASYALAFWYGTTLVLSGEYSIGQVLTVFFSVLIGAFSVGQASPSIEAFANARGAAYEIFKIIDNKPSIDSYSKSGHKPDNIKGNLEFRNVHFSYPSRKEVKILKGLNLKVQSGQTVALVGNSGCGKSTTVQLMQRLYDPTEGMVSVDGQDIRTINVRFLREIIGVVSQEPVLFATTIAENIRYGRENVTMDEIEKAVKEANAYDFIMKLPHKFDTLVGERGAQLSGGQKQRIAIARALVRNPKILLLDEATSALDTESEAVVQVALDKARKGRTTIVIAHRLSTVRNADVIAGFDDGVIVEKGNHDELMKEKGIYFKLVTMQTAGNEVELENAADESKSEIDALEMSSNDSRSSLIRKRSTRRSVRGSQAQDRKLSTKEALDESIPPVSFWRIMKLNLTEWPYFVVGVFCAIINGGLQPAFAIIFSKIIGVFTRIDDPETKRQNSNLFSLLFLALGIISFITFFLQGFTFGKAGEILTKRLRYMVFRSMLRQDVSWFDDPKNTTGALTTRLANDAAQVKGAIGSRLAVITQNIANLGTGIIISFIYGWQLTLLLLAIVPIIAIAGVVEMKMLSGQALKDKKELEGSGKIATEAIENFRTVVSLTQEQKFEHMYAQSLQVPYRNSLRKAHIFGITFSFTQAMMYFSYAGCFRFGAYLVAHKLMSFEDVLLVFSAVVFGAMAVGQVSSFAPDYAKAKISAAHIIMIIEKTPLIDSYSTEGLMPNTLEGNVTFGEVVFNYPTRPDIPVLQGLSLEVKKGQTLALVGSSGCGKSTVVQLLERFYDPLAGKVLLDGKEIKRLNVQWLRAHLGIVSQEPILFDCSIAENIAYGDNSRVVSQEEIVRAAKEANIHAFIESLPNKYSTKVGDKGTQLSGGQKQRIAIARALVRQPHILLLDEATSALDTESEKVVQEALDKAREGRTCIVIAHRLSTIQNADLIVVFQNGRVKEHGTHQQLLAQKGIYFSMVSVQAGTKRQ

Activity	SMILES
substrate [+]	C[C@H]1O[C@@H](O[C@H]2[C@@H](O)C[C@H](O[C@H]3[C@@H](O)C[C@H](O[C@H]4CC[C@@]5(C)[C@H](CC[C@@H]6[C@@H]5C[C@@H](O)[C@]5(C)[C@@H](C7=CC(=O)OC7)CC[C@]65O)C4)O[C@@H]3C)O[C@@H]2C)C[C@H](O)[C@@H]1O [DIGOXIN]
substrate [+]	CC(C)(C(=O)O)c1ccc(C(O)CCCN2CCC(C(O)(c3ccccc3)c3ccccc3)CC2)cc1 (configuration not stated) [FEXOFENADINE]
